Assay results reported in patent US20230279020A9, “CARM1 INHIBITORS AND USES THEREOF” (Epizyme, Inc., priority 2013, published 2023).

Molecular target: Human CARM1 (PRMT4) (Homo sapiens (Human), UniProt Q86X55)
Assay: CARM1 enzyme assay on peptide substrate (3H-SAM Flashplate)
Details: Biochemical potencies, classification codes; read-out: Biochem IC50

Human CARM1 (PRMT4), sequence (Q86X55 other isoform, or with tags, fused parts or gaps isoform Q86X55-1): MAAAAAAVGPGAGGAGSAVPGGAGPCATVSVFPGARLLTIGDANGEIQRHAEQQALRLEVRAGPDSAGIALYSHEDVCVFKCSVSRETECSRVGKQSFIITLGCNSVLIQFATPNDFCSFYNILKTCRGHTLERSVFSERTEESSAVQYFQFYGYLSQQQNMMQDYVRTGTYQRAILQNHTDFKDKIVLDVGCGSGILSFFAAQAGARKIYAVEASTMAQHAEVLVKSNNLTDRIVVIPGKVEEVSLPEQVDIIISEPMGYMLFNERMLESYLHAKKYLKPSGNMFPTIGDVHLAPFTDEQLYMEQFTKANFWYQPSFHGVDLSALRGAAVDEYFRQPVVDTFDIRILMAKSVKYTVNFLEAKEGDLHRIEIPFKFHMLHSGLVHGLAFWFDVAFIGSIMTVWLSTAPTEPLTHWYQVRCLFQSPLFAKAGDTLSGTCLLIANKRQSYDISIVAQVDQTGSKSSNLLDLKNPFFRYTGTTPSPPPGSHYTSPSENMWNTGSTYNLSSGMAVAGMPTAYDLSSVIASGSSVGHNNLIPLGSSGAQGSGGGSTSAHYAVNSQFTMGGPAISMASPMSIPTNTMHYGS

SMILES	IC50 [nM]
CNCC(O)COc1cccc(-c2nc(NC3CCOC3)c(C)c(N3CC4CC(C3)N4)n2)c1 (centres unmarked) [Example 452-1a]	< 100
CNCC(O)COc1cccc(-c2nc(NC3CCOC3)c(C)c(N3CCN4C(=O)OC[C@@H]4C3)n2)c1 (some centres unmarked) [Example 454-1a]	< 100
CNCC(O)COc1cccc(-c2nc(NC3CCOC3)c(C)c(N3CCN(C)C(C)(C)C3)n2)c1 (centres unmarked) [Example 455-1a]	< 100
CCOC(=O)N1CCN(c2nc(-c3cccc(OCC(O)CNC)c3)nc(N[C@@H]3CCOC3)c2C)CC1 (some centres unmarked) [Example 456-1a]	< 100
CNCC(O)COc1cccc(-c2nc(NC3CCOC3)c(C)c(N3CCN(CC(F)F)C(C)(C)C3)n2)c1 (centres unmarked) [Example 457-1a]	< 100
CNCC(O)COc1cccc(-c2nc(N[C@@H]3CCOC3)c(C)c(N3CCN(CC(F)F)CC3)n2)c1 (some centres unmarked) [Example 458-1a]	< 100
CNCC(O)COc1cccc(-c2nc(N[C@@H]3CCOC3)c(C)c(N3CCC(c4cccnc4)C3)n2)c1 (some centres unmarked) [Example 461-1a]	< 100
CNCC(O)COc1cccc(-c2nc(N[C@@H]3CCOC3)c(C)c(N3CCC4(CCOCC4)C3)n2)c1 (some centres unmarked) [Example 462-1a]	< 100
CNCC(O)COc1cccc(-c2nc(N[C@@H]3CCOC3)c(C)c(N3CCN(C)[C@H](C)C3)n2)c1 (some centres unmarked) [Example 463-1a]	< 100
CCS(=O)(=O)N1CCN(c2nc(-c3cccc(OCC(O)CNC)c3)nc(N[C@@H]3CCOC3)c2C)CC1 (some centres unmarked) [Example 464-1a]	< 100
CNCC(O)COc1cccc(-c2nc(N[C@@H]3CCOC3)c(C)c(N3Cc4nc(C)sc4C3)n2)c1 (some centres unmarked) [Example 465-1a]	< 100
CNCC(O)COc1cccc(-c2nc(N[C@@H]3CCOC3)c(C)c(N3CCN(C4CC4)[C@H](C)C3)n2)c1 (some centres unmarked) [Example 466-1a]	< 100
CNCC(O)COc1cccc(-c2nc(N[C@@H]3CCOC3)c(C)c(N3CC[C@@H](c4cccnc4)C3)n2)c1 (some centres unmarked) [Example 467-1a]	< 100
CNCC(O)COc1cccc(-c2nc(N[C@@H]3CCOC3)c(C)c(N3CCC(n4nc(C)cc4C)C3)n2)c1 (some centres unmarked) [Example 468-1a]	< 100
CNCC(O)COc1cccc(-c2nc(N[C@@H]3CCOC3)c(C)c(N3CCCC4(CN(CC(F)F)C4)C3)n2)c1 (some centres unmarked) [Example 469-1a]	< 100
CCOC(=O)N1CCN(c2nc(-c3cccc(OCC(O)CNC)c3)nc(N[C@@H]3CCOC3)c2C)C[C@H]1C (some centres unmarked) [Example 470-1a]	< 100
CNCC(O)COc1cccc(-c2nc(N[C@@H]3CCOC3)c(C)c(N3CCN(CC(F)F)[C@H](C)C3)n2)c1 (some centres unmarked) [Example 471-1a]	< 100
CNCC(O)COc1cccc(-c2nc(N[C@@H]3CCOC3)c(C)c(N3CCC4(CN(CC(F)F)C4)C3)n2)c1 (some centres unmarked) [Example 475-1a]	< 100
CNCC(O)COc1cccc(-c2nc(-c3cnc4c(C(=O)OC)cnn4c3)cc(N(C)C3CCOCC3)n2)c1 (centres unmarked) [Example 482-1a]	< 100
CNCC(O)COc1cccc(-c2nc(-c3cn(S(C)(=O)=O)c4ncncc34)cc(N(C)C3CCOCC3)n2)c1 (centres unmarked) [Example 483-1a]	< 100
CNCC(O)COc1cccc(-c2nc(-c3cn(C)c4ncncc34)cc(N(C)C3CCOCC3)n2)c1 (centres unmarked) [Example 485-1a]	< 100
CNC[C@H](O)COc1cccc(-c2nc(-c3cnc4cnccn34)cc(N(C)C3CCOCC3)n2)c1 [Example 486-1a]	< 100
CNCC(O)COc1cccc(-c2nc(N(C)c3cncnc3)cc(N(C)C3CCOCC3)n2)c1 (centres unmarked) [Example 487-1a]	< 100
CNC[C@@H](O)COc1cccc(-c2nc(-c3cn(S(C)(=O)=O)c4ncncc34)c(C)c(N(C)C3CCOCC3)n2)c1 [Example 488-1a]	< 100

SMILES	IC50 [nM]
CNCC(O)COc1cccc(-c2nc(-c3cnc4ncccn34)cc(N(C)C3CCOCC3)n2)c1 (centres unmarked) [Example 489-1a]	< 100
CNCC(O)COc1cccc(-c2nc(-c3cnc4cnccn34)cc(N(C)C3CCOCC3)n2)c1 (centres unmarked) [Example 490-1a]	< 100
CNCC(O)COc1cccc(-c2nc(-c3ncc(C)n3C)cc(N(C)C3CCOCC3)n2)c1 (centres unmarked) [Example 491-1a]	< 100
CNCC(O)COc1cc(OC)cc(-c2nc(-c3cnc4cnccn34)cc(N(C)C3CCOCC3)n2)c1 (centres unmarked) [Example 492-1a]	< 100
CNCC(O)COc1cccc(-c2nc(-c3csnc3C)cc(N(C)C3CCOCC3)n2)c1 (centres unmarked) [Example 493-1a]	< 100
CNCC(O)COc1cccc(-c2nc(-c3scnc3C)cc(N(C)C3CCOCC3)n2)c1 (centres unmarked) [Example 495-1a]	< 100
CNCC(O)COc1cccc(-c2nc(-c3c(C)nn(C(C)C)c3C)cc(N(C)C3CCOCC3)n2)c1 (centres unmarked) [Example 496-1a]	< 100
CNCC(O)COc1cccc(-c2nc(-c3ccnc(C#N)c3)cc(N(C)C3CCOCC3)n2)c1 (centres unmarked) [Example 498-1a]	< 100
CNCC(O)COc1cccc(-c2nc(-c3ccc(S(C)(=O)=O)cc3)cc(N(C)C3CCOCC3)n2)c1 (centres unmarked) [Example 499-1a]	< 100
CNCC(O)COc1cccc(-c2nc(N3CCOCC3)c(F)c(N(C)C3CCOCC3)n2)c1 (centres unmarked) [Example 500-1a]	< 100
CNCC(O)COc1cccc(-c2nc(-c3cn(C)cn3)cc(N(C)C3CCOCC3)n2)c1 (centres unmarked) [Example 501-1a]	< 100
CNCC(O)COc1cccc(-c2nc(N3CCN(C)[C@@H](C)C3)cc(N(C)C3CCOCC3)n2)c1 (some centres unmarked) [Example 502-1a]	< 100
CNCC(O)COc1cccc(-c2nc(-c3ccnc(C(C)(C)O)c3)cc(N(C)C3CCOCC3)n2)c1 (centres unmarked) [Example 503-1a]	< 100
CNCC(O)COc1cccc(-c2nc(-c3c[nH]c4ncncc34)cc(N(C)C3CCOCC3)n2)c1 (centres unmarked) [Example 504-1a]	< 100
CC[C@H]1CN(c2cc(N(C)C3CCOCC3)nc(-c3cccc(OCC(O)CNC)c3)n2)CCN1 (some centres unmarked) [Example 505-1a]	< 100
CNCC(O)COc1cc(Cl)cc(-c2nc(Nc3cncnc3)c(C)c(N(C)C3CCOCC3)n2)c1 (centres unmarked) [Example 506-1a]	< 100
CNC[C@@H](O)COc1cccc(-c2nc(-c3cnc4cnccn34)cc(N(C)C3CCOCC3)n2)c1 [Example 507-1a]	< 100
CNCC(O)COc1cc(Cl)cc(-c2nc(C(=O)NCC3CCOCC3)cc(N(C)C3CCOCC3)n2)c1 (centres unmarked) [Example 508-1a]	< 100
CNCC(O)COc1cccc(-c2nc(-c3ccnc(C(=O)NC)c3)cc(N(C)C3CCOCC3)n2)c1 (centres unmarked) [Example 510-1a]	< 100
CNC[C@@H](O)COc1cccc(-c2nc(-c3cn(S(C)(=O)=O)c4ncncc34)cc(N(C)C3CCOCC3)n2)c1 [Example 511-1a]	< 100
CNCC(O)COc1cccc(-c2nc(-c3ccc(N4CCOCC4)nn3)cc(N(C)C3CCOCC3)n2)c1 (centres unmarked) [Example 512-1a]	< 100
CNCC(O)COc1cccc(-c2nc(Nc3ncc(C)cn3)cc(N(C)C3CCOCC3)n2)c1 (centres unmarked) [Example 513-1a]	< 100
CNCC(O)COc1cccc(-c2nc(-c3cnc4c(C(=O)N(C)C)cnn4c3)cc(N(C)C3CCOCC3)n2)c1 (centres unmarked) [Example 514-1a]	< 100
CNCC(O)COc1cccc(-c2nc(-c3cnn(CC(C)C)c3)cc(N(C)C3CCOCC3)n2)c1 (centres unmarked) [Example 516-1a]	< 100

SMILES	IC50 [nM]
CNCC(O)COc1cccc(-c2nc(-c3cnc(C)n3C)cc(N(C)C3CCOCC3)n2)c1 (centres unmarked) [Example 517-1a]	< 100
CNCC(O)COc1cccc(-c2nc(-c3nc(C)cn3C)cc(N(C)C3CCOCC3)n2)c1 (centres unmarked) [Example 519-1a]	< 100
CNCC(O)COc1cccc(-c2nc(-c3nc(C)c[nH]3)cc(N(C)C3CCOCC3)n2)c1 (centres unmarked) [Example 521-1a]	< 100
CNCC(O)COc1cc(Cl)cc(-c2nc(-c3ccncc3C3CC3)cc(N(C)C3CCOCC3)n2)c1 (centres unmarked) [Example 522-1a]	< 100
CNCC(O)COc1cccc(-c2nc(N3CCO[C@H](CN)C3)cc(N(C)C3CCOCC3)n2)c1 (some centres unmarked) [Example 524-1a]	< 100
CNCC(O)COc1cccc(-c2nc(-c3cncnc3)cc(N(C)C3CCOCC3)n2)c1 (centres unmarked) [Example 525-1a]	< 100
CNC[C@@H](O)COc1cccc(-c2nc(-c3c[nH]c4ncncc34)c(C)c(N(C)C3CCOCC3)n2)c1 [Example 526-1a]	< 100
CNCC(O)COc1cccc(-c2nc(-c3c(C)nn(C)c3C)cc(N(C)C3CCOCC3)n2)c1 (centres unmarked) [Example 528-1a]	< 100
CNCC(O)COc1cccc(-c2nc(-c3cn(C)c(C)n3)cc(N(C)C3CCOCC3)n2)c1 (centres unmarked) [Example 529-1a]	< 100
CNCC(O)COc1cccc(-c2nc(N3CCN(C)CC3)cc(N(C)C3CCOCC3)n2)c1 (centres unmarked) [Example 531-1a]	< 100
CNCC(O)COc1cccc(-c2nc(-c3cnc4ncnn4c3)cc(N(C)C3CCOCC3)n2)c1 (centres unmarked) [Example 536-1a]	< 100
CNCC(O)COc1cccc(-c2nc(-c3ccncc3)c(C)c(N(C)C3CCOCC3)n2)c1 (centres unmarked) [Example 537-1a]	< 100
CNCC(O)COc1cccc(-c2nc(N3CCC[C@H](O)C3)cc(N(C)C3CCOCC3)n2)c1 (some centres unmarked) [Example 538-1a]	< 100
CNCC(O)COc1cccc(-c2nc(-c3ccnc(OC)c3)cc(N(C)C3CCOCC3)n2)c1 (centres unmarked) [Example 541-1a]	< 100
CNCC(O)COc1cccc(-c2nc(N(C)C3CCOCC3)cc(-n3cccn3)n2)c1 (centres unmarked) [Example 542-1a]	< 100
CNCC(O)COc1cccc(-c2nc(N(C)C3CCOCC3)cc(N3C[C@@H]4C[C@H]3CN4C)n2)c1 (some centres unmarked) [Example 543-1a]	< 100
CNCC(O)COc1cccc(-c2nc(C(C)=O)c(C)c(N(C)C3CCOCC3)n2)c1 (centres unmarked) [Example 544-1a]	< 100
CNCC(O)COc1cccc(-c2nc(C(=O)NCC3CCOCC3)cc(N(C)C3CCOCC3)n2)c1 (centres unmarked) [Example 548-1a]	< 100
CNCC(O)COc1cccc(-c2nc(N3CCN(C)C(=O)C3)cc(N(C)C3CCOCC3)n2)c1 (centres unmarked) [Example 549-1a]	< 100
CNCC(O)COc1cccc(-c2nc(N3CC4(CCNCC4)c4ccccc43)cc(N(C)C3CCOCC3)n2)c1 (centres unmarked) [Example 559-1a]	< 100
CNCC(O)COc1cccc(-c2nc(N3CCNCC3)c(C)c(N(C)C3CCOCC3)n2)c1 (centres unmarked) [Example 560-1a]	< 100
CNCC(O)COc1cc(Cl)cc(-c2nc(-c3cnc4ccccn34)c(C)c(N(C)C3CCOCC3)n2)c1 (centres unmarked) [Example 561-1a]	< 100
CNCC(O)COc1cccc(-c2nc(N(C)C3CCOCC3)cc(N3C[C@H]4C[C@@H]3CN4)n2)c1 (some centres unmarked) [Example 562-1a]	< 100
